Test results from patent publication US6737383B1, “Herbicidal oxadiazolidines” (priority 1999, dated 2004).

Tests used:
sugar beet = assay: Test B pre/postemergence sugar beet; assay type: in vivo, Beta vulgaris
Outline: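 Test chemicals in a non-phytotoxic solvent mixture with surfactant were sprayed preemergence onto planted seeds and postemergence onto plants 2 to 18 cm tall (1- to 4-leaf stage). After twelve to sixteen days in a greenhouse, injury was visually rated against untreated controls from 0 (no effect) to 10 (complete control).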

smallflower flatsedge = assay: Test B flood test smallflower flatsedge; assay type: in vivo, Cyperus difformis; details: for Plant response rating, S. Flatsedge (0 to 10 scale, 0 is no effect, 10 is complete control): Rate 62 g/ha; for Plant response rating, S. Flatsedge (0 to 10 scale, 0 is no effect, 10 is complete control) / S. Flatsedge plant response rating (0 to 10 scale, 0 is no effect, 10 is complete control): visual evaluation after twelve to sixteen days; for S. Flatsedge plant response rating (0 to 10 scale, 0 is no effect, 10 is complete control): Rate 125 g/ha, under heading Pre-emergence
Outline: (§1)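 Flood test on plants grown to the 2-leaf stage; treated plants kept in greenhouse twelve to sixteen days, then visually rated against controls on a 0 (no effect) to 10 (complete control) scale.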

bamyardgrass = assay: Test B flood test barnyardgrass; assay type: in vivo, Echinochloa crus-galli; details: for Plant response rating, Barnyardgrass (0 to 10 scale, 0 is no effect, 10 is complete control): Rate 62 g/ha; for Plant response rating, Barnyardgrass (0 to 10 scale, 0 is no effect, 10 is complete control) / Barnyardgrass plant response rating (0 to 10 scale, 0 is no effect, 10 is complete control): visual evaluation after twelve to sixteen days; for Barnyardgrass plant response rating (0 to 10 scale, 0 is no effect, 10 is complete control): Rate 125 g/ha, under heading Pre-emergence
Outline: as §1

duck salad = assay: Test B flood test duck salad; assay type: in vivo, Heteranthera limosa; details: for Plant response rating, Ducksalad (0 to 10 scale, 0 is no effect, 10 is complete control): Rate 62 g/ha; for Plant response rating, Ducksalad (0 to 10 scale, 0 is no effect, 10 is complete control) / Ducksalad plant response rating (0 to 10 scale, 0 is no effect, 10 is complete control): visual evaluation after twelve to sixteen days; for Ducksalad plant response rating (0 to 10 scale, 0 is no effect, 10 is complete control): Rate 125 g/ha, under heading Pre-emergence
Outline: as §1

rice = assay: Test B flood test rice; assay type: in vivo, Oryza sativa; details: for Plant response rating, Rice (0 to 10 scale, 0 is no effect, 10 is complete control): Rate 62 g/ha; for Plant response rating, Rice (0 to 10 scale, 0 is no effect, 10 is complete control) / Rice plant response rating (0 to 10 scale, 0 is no effect, 10 is complete control): visual evaluation after twelve to sixteen days; for Rice plant response rating (0 to 10 scale, 0 is no effect, 10 is complete control): Rate 125 g/ha, under heading Pre-emergence
Outline: as §1

[1] = Postemergence, Rate 250 g/ha, scale 0 to 10
[2] = Preemergence, Rate 62 g/ha, scale of 0 to 10 where 0 is no effect and 10 is complete control
[3] = Preemergence, Rate 125 g/ha, scale of 0 to 10 where 0 is no effect and 10 is complete control
[4] = Preemergence, Rate 250 g/ha, scale 0 to 10, 0 is no effect, 10 is complete control
[5] = Preemergence, Rate 500 g/ha, scale 0 to 10, 0 is no effect, 10 is complete control
[6] = Rate 62 g/ha, Postemergence, scale 0 to 10 (0 no effect, 10 complete control)
[7] = Rate 125 g/ha, Postemergence, scale 0 to 10, 0 is no effect, 10 is complete control
[8] = flood test species, Pre-emergence
[9] = Rate 250 g/ha, Pre-emergence (flood test species), scale 0 to 10, 0 is no effect, 10 is complete control
[10] = Rate 500 g/ha, Pre-emergence, flood test species, scale 0 to 10 (0 no effect, 10 complete control)
[11] = Postemergence, Rate 62 g/ha, scale of 0 to 10, 0 is no effect, 10 is complete control
[12] = Preemergence, Rate 125 g/ha, scale 0 to 10, 0 is no effect, 10 is complete control
[13] = Preemergence, Rate 500 g/ha, scale of 0 to 10 where 0 is no effect and 10 is complete control
[14] = Rate 250 g/ha, Postemergence, scale of 0 to 10 where 0 is no effect and 10 is complete control
[15] = Rate 500 g/ha, Pre-emergence section of Table B, 0 to 10 scale (0 no effect, 10 complete control)
[16] = Postemergence, Rate 500 g/ha, scale of 0 to 10 where 0 is no effect and 10 is complete control
[17] = Preemergence, Rate 62 g/ha, scale 0 to 10 (0 no effect, 10 complete control)
[18] = Postemergence, Rate 125 g/ha, scale of 0 to 10 where 0 is no effect and 10 is complete control

Compound	Sugarbeets plant response rating (sugar beet; [1])	Plant response rating, Sugarbeets (sugar beet; [2])	Plant response rating, Sugarbeets (sugar beet; [3])	Sugarbeets plant response rating (sugar beet; [4])	Plant response rating, S. Flatsedge (0 to 10 scale, 0 is no effect, 10 is complete control) (smallflower flatsedge; [8])	S. Flatsedge plant response rating (0 to 10 scale, 0 is no effect, 10 is complete control) (smallflower flatsedge; flood test species)	S. Flatsedge plant response rating (smallflower flatsedge; [9])	Plant response rating, Barnyardgrass (0 to 10 scale, 0 is no effect, 10 is complete control) (bamyardgrass; [8])	Barnyardgrass plant response rating (0 to 10 scale, 0 is no effect, 10 is complete control) (bamyardgrass; flood test species)	Barnyardgrass plant response rating (bamyardgrass; [9])	Plant response rating, Ducksalad (0 to 10 scale, 0 is no effect, 10 is complete control) (duck salad; [8])	Ducksalad plant response rating (0 to 10 scale, 0 is no effect, 10 is complete control) (duck salad; flood test species)	Ducksalad plant response rating (duck salad; [9])	Plant response rating, Rice (0 to 10 scale, 0 is no effect, 10 is complete control) (rice; [8])	Rice plant response rating (0 to 10 scale, 0 is no effect, 10 is complete control) (rice; flood test species)	Rice plant response rating (rice; [9])	S. Flatsedge plant response rating (smallflower flatsedge; [15])	Barnyardgrass plant response rating (bamyardgrass; [15])	Ducksalad plant response rating (duck salad; [15])	Rice plant response rating (rice; [15])	also measured
CC(C)N(C(=O)n1oc(=O)n(CO)c1=O)c1ccc(F)cc1 [Compound 470]	0	0	0	0	0	0	0	0	0	0	0	0	0	0	0	0	–	–	–	–	Sugarbeets plant response rating (sugar beet; [5]): 0; Sugarbeets plant response rating (sugar beet; [6]): 0; Sugarbeets plant response rating (sugar beet; [7]): 0; S. Flatsedge plant response rating (smallflower flatsedge; [10]): 0; Barnyardgrass plant response rating (bamyardgrass; [10]): 0; Ducksalad plant response rating (duck salad; [10]): 0; Rice plant response rating (rice; [10]): 0
CC(C)N(C(=O)n1oc(=O)n(CC(=O)N(C)C)c1=O)c1ccc(Cl)cc1 [Compound 477]	0	0	0	0	0	0	0	0	0	0	0	0	0	0	0	0	–	–	–	–	Sugarbeets plant response rating (sugar beet; [5]): 0; Sugarbeets plant response rating (sugar beet; [6]): 0; Sugarbeets plant response rating (sugar beet; [7]): 0; S. Flatsedge plant response rating (smallflower flatsedge; [10]): 0; Barnyardgrass plant response rating (bamyardgrass; [10]): 0; Ducksalad plant response rating (duck salad; [10]): 0; Rice plant response rating (rice; [10]): 0
CC(C)N(C(=O)n1oc(=O)n(C(C)C(=O)N(C)C)c1=O)c1ccccc1 (centres unmarked) [Compound 479]	0	0	0	2	0	0	0	0	0	0	0	0	0	0	0	0	–	–	–	–	Sugarbeets plant response rating (sugar beet; [5]): 4; Sugarbeets plant response rating (sugar beet; [6]): 0; Sugarbeets plant response rating (sugar beet; [7]): 0; S. Flatsedge plant response rating (smallflower flatsedge; [10]): 0; Barnyardgrass plant response rating (bamyardgrass; [10]): 0; Ducksalad plant response rating (duck salad; [10]): 0; Rice plant response rating (rice; [10]): 0
CC(C)N(C(=O)n1oc(=O)n(CC2CCC2)c1=O)c1ccc(F)cc1F [Compound 521]	–	0	–	–	0	0	0	0	0	0	0	0	0	0	0	0	0	0	0	0	Sugarbeets plant response rating (sugar beet; [11]): 0; Sugarbeets plant response rating (sugar beet; Postemergence, Rate 125 g/ha, scale 0 to 10, 0 is no effect, 10 is complete control): 0; Plant response rating, Sugarbeets (sugar beet; Postemergence, Rate 500 g/ha, scale 0 to 10, 0 is no effect, 10 is complete control): 4; Sugarbeets plant response rating (sugar beet; [12]): 0; Sugarbeets plant response rating (0 to 10 scale) (sugar beet; Preemergence, Rate 250 g/ha): 3; Sugarbeets plant response rating (sugar beet; [13]): 3; Plant response rating, Sugarbeets (sugar beet; [14]): 0
CC(C)N(C(=O)n1oc(=O)n(CCC2OCCCO2)c1=O)c1ccccc1 [Compound 561]	–	–	–	–	0	0	0	0	0	0	0	0	0	0	0	0	0	0	0	0	Sugarbeets plant response rating (sugar beet; [11]): 0; Plant response rating, Sugarbeets (sugar beet; [16]): 4; Sugarbeets plant response rating (sugar beet; [17]): 0; Sugarbeets plant response rating (sugar beet; [12]): 0; Sugarbeets plant response rating (0 to 10 scale) (sugar beet; Preemergence, Rate 250 g/ha): 2; Sugarbeets plant response rating (sugar beet; [13]): 8
CC(C)N(C(=O)n1oc(=O)n(CC2CCC2)c1=O)c1ccccc1 [Compound 580]	–	–	–	–	0	0	0	0	0	0	0	0	0	0	0	0	0	0	0	0	Plant response rating, Sugarbeets (sugar beet; [18]): 4; Plant response rating, Sugarbeets (sugar beet; [16]): 6; Sugarbeets plant response rating (sugar beet; [17]): 0; Sugarbeets plant response rating (sugar beet; [3]): 0; Sugarbeets plant response rating (0 to 10 scale) (sugar beet; Preemergence, Rate 250 g/ha): 4; Sugarbeets plant response rating (sugar beet; [13]): 5; Plant response rating, Sugarbeets (sugar beet; [14]): 5
CCC(C)n1c(=O)on(C(=O)N(c2ccccc2)C(C)C)c1=O (centres unmarked) [Compound 611]	–	–	–	–	0	0	0	0	0	0	0	0	0	0	0	0	0	5	1	2	Plant response rating, Sugarbeets (sugar beet; Postemergence, Rate 62 g/ha, scale 0 to 10, 0 is no effect, 10 is complete control): 0; Plant response rating, Sugarbeets (sugar beet; [18]): 0; Sugarbeets plant response rating (sugar beet; Postemergence, Rate 250 g/ha, scale of 0 to 10, 0 is no effect, 10 is complete control): 0; Plant response rating, Sugarbeets (sugar beet; [16]): 2; Sugarbeets plant response rating (sugar beet; [17]): 2; Sugarbeets plant response rating (sugar beet; [3]): 2; Plant response rating, Sugarbeets (sugar beet; [13]): 6
